The source of these data is patent US20250281607A1, “MEDICAMENT FOR TREATMENT AND/OR PREVENTION OF CANCER” (TORAY INDUSTRIES, INC., priority 2021, published 2025).

Assay [1] deals with colon cancer cell line HCT116. Briefly: THP-1-mediated phagocytic activity against HCT116 (Examples 3 to 6). Particulars: cells cultured 2 days with drug at 10 μM, then anti-CAPRIN-1 humanized antibody #1 1 μg/mL. It is filed as cell-based, human. The protocol:
Specifically, in each RAS inhibitor combination test group, the indicated drug used in combination was applied to human cancer cells, and then the cancer cells were cocultured with human monocytic cells (THP-1) in the presence of the anti-CAPRIN-1 antibody, and the antibody-mediated phagocytic activity against the cancer cells by THP-1 was evaluated.
The human-derived cancer cells used were a colon cancer cell line HCT116. On a 6-well plate, the human-derived cancer cells were cultured for 2 days in the presence of the indicated drug used in combination in the lonafarnib combination test group, the sotorasib combination test group and the salirasib combination test group. […]
Each cancer cell line after the culture was dissociated with TrypLE Express (Thermo), and the cancer cells were stained by the addition of calcein-AM at a final concentration of 0.04 μg/mL and incubation at 37° C. for 10 minutes. […] Further, dead cells were stained with propidium iodide (PI) (final concentration: 0.1 μg/mL), followed by the measurement of fluorescence from the cells by flow cytometry. […] Thus, the phagocytic activity in this evaluation system was calculated as the ratio (%) of APC-positive/calcein-AM-positive cells to the whole calcein-AM-positive population. […]

The test system of assay [2] is colon cancer cell line HCT116. The assay is described as follows: THP-1-mediated phagocytic activity against HCT116 (Example 2). The settings on record: then anti-CAPRIN-1 humanized antibody #1 5 μg/mL, FIG. 2. It is filed as cell-based, human. Here is the method: Specifically, in each combination test group (a trametinib combination test group, a fluorouracil combination test group and an irinotecan combination test group), the indicated drug used in combination was applied to human cancer cells, and then the cancer cells were cocultured with human monocytic cells (THP-1) in the presence of the anti-CAPRIN-1 antibody, and the antibody-mediated phagocytic activity against the cancer cells by THP-1 was evaluated. The human-derived cancer cells used were melanoma cell line A375 (used only in the trametinib combination test group), colon cancer cell line HCT116, prostate cancer cell line DU145 (used only in the trametinib combination test group), and lung cancer cell line A549 (used only in the trametinib combination test group). On a 6-well plate, the human-derived cancer cells were cultured for 2 days in the presence of trametinib for the trametinib combination test group, and cultured for 2 days in the presence of the each drug used in combination for the fluorouracil combination test group and the irinotecan combination test group. The concentration of the drug used in combination was set to a concentration that decreased the proliferation rate of the cancer cells by about half at the completion of culture. […]
Each cancer cell line after the culture was dissociated with TrypLE Express (Thermo), and the cancer cells were stained by the addition of calcein-AM at a final concentration of 0.02 μg/mL and incubation at 37° C. for 30 minutes. […] Further, dead cells were stained with propidium iodide (PI) (final concentration: 0.1 μg/mL), followed by the measurement of fluorescence from the cells by flow cytometry. […] Thus, the phagocytic activity in this evaluation system was calculated as the ratio (%) of APC-positive/calcein-AM-positive cells to the whole calcein-AM-positive population.

Assay [3] deals with T1, CAPRIN-1 protein (Homo sapiens, UniProt Q14444).
T1 construct: made in house
T1 sequence (Q14444 1-709): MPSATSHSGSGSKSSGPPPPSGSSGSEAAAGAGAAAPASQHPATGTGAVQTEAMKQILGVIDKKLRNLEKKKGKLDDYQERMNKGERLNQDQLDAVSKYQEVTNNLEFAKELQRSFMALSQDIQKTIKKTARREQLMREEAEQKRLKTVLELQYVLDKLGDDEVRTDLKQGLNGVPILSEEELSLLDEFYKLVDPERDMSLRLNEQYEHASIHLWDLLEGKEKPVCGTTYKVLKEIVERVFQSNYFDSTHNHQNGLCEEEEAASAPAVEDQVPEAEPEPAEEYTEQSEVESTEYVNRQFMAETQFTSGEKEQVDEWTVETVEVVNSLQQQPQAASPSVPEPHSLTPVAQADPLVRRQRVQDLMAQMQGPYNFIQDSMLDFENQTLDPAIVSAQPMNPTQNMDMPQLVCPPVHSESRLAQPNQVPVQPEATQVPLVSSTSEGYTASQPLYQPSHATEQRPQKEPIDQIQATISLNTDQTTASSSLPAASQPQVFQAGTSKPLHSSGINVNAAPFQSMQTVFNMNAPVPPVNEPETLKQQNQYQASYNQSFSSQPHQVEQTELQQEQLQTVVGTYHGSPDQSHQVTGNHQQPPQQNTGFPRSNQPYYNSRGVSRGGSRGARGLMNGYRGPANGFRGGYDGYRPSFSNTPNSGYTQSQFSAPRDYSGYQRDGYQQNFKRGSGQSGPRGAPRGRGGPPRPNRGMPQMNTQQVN
The assay is described as follows: ELISA reactivity with CAPRIN-1 protein immobilized on a plate. It is filed as binding. The protocol:
One hundred (100) μg of a human CAPRIN-1 recombinant protein produced according to Example 3 of WO2010/016526 was mixed with a MPL+TDM adjuvant (Sigma) in an amount equivalent to that of the recombinant protein. The mixture was used as an antigen solution per mouse. The antigen solution was administered intraperitoneally to 6-week-old Balb/c mice (Japan SLC Inc.) and then further administered 3 times […] every week for completion of immunization. A spleen was removed on day 3 after the final immunization and then ground between two sterilized glass slides. Spleen cells were obtained by repeating the following procedure three times: washing with PBS (-) (Nissui Corporation), centrifuging at 1500 rpm for 10 minutes, and removing supernatant. The obtained spleen cells were mixed with mouse myeloma cell SP2/0 (purchased from ATCC) at a ratio of 10:1. The PEG solution prepared by mixing 200 μl of RPMI1640 medium containing 10% FBS heated at 37° C. and 800 μl of PEG1500 (Boehringer) was added to the cells. The solution was incubated for 5 minutes for cell fusion. Centrifugation was performed at 1700 rpm for 5 minutes to remove supernatants. […] Absorbance at 450 nm and absorbance at 595 nm were measured using an absorption spectrometer. As a result, a plurality of hybridomas producing antibodies with high absorbances were selected. […]
For orientation: An ELISA detects its analyte on a solid surface through an enzyme-linked reagent.

As for `O=C(Nc1ccc2[nH]nc(-c3ccncc3)c2c1)[C@@H]1CCN(CC(=O)N2CCN(c3ccc(-c4ncccn4)cc3)CC2)C1` [SCH772984, (3R)-1-[2-oxo-2-[4-(4-pyrimidin-2-ylphenyl)piperazin-1-yl]ethyl]-N-(3-pyridin-4-yl-1H-indazol-5-yl)pyrrolidine-3-carboxamide], in assay [1] (FIG. 5), the “phagocytic activity against cancer cells” value came out at 90%.

Turning to `COc1cc(Nc2c(C#N)cnc3cc(OCCCN4CCN(C)CC4)c(OC)cc23)c(Cl)cc1Cl` [bosutinib, 4-(2,4-dichloro-5-methoxyanilino)-6-methoxy-7-[3-(4-methylpiperazin-1-yl)propoxy]quinoline-3-carbonitrile], the “phagocytic activity against cancer cells” value in assay [1] (FIG. 3) is on record as 82%.

`O=c1[nH]cc(F)c(=O)[nH]1` [fluorouracil]: the “phagocytic activity against cancer cells” value in assay [2] (cells cultured 2 days with drug at 0.4 μg/mL) was determined as 16%.

`CCc1c2c(nc3ccc(OC(=O)N4CCC(N5CCCCC5)CC4)cc13)-c1cc3c(c(=O)n1C2)COC(=O)[C@]3(O)CC` [irinotecan]: the “phagocytic activity against cancer cells” value in assay [2] (cells cultured 2 days with drug at 15 μM) is on record as 14%.

B1: monoclonal antibody against CAPRIN-1 described in WO2013/125630: mouse monoclonal antibody; heavy-chain variable region SEQ ID NO: 114, light-chain variable region SEQ ID NO: 115; parent of humanized … (antibody, listed as Mus musculus, V domains shown)
VH: GPELVKPGASVKMSCKASGYTFTSYVMHWVKQKPGQGLEWIGYINPYNDGTKYNEKFKGKATLTSDKSSSTAYMELSSLTSEDSAVYYCARRYYYGSSGGYFDVWAQDHVRT
VL: DVQITQSPSYLAASPGETITINCRASKSISKYLAWYQEKPGKTNKLLIYSGSTLQSGIPSRFSGSGSGTDFTLTISSLEPEDFAMYYCQQHNEYPYTFGGGTKLEIKR
notes: mouse monoclonal antibody; parent of humanized antibody #1
On to B1, for which the “specific reactivity to CAPRIN-1 protein” value in assay [3] is reported as “exhibiting reactivity”.
